Reference: PMC6698739, “Structural intermediates of a DNA–ligase complex illuminate the role of the catalytic metal ion and mechanism of phosphodiester bond formation” (Nucleic Acids Research, 2019)

Target: T1, Pmar-Lig (Prochlorococcus marinus, UniProt A0A0A2ACP7)
T1 construct: gene EU96_0746; codon-optimised synthetic gene in pDEST17; tag removed; three domains (DB, AD, OB); 432 residues modelled in wild-type crystals
Experiment: X-ray crystal structure, […] A
Type: binding
Conditions: post-step 3 complex with sealed DNA product; partial occupancy (adenine nucleobase 0.75, phosphate 0.5); some residual covalent DNA-adenylate; pH 6.5 crystallisation

T1 sequence (A0A0A2ACP7 entry or part of it): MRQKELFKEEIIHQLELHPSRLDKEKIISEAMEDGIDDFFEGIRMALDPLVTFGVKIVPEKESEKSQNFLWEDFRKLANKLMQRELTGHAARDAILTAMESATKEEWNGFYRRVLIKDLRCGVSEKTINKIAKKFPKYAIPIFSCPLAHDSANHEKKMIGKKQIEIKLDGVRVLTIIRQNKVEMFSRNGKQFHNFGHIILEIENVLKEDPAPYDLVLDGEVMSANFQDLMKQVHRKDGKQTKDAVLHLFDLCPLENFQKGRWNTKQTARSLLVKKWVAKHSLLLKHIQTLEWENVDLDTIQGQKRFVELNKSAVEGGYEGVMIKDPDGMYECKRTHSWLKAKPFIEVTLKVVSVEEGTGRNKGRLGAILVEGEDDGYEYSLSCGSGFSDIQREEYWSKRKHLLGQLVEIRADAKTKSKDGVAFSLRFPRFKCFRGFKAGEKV

Nc1ncnc2c1ncn2[C@@H]1O[C@H](COP(=O)(O)O)[C@@H](O)[C@H]1O [AMP]
X-ray crystal structure, 1.99 A: with the DNA product retained in the active site, as well as residual AMP
